Source: PMC11649914, “Transport mechanism of DgoT, a bacterial homolog of SLC17 organic anion transporters” (The EMBO Journal, 2024)

Key:
Test in all cases: SSM electrophysiology, kobs of pre-steady state current vs concentration
Type in all cases: biochemical
DgoT [1] = molecular target: T1, DgoT (Escherichia coli, UniProt A0A0H2Z574)
T1 sequence (A0A0H2Z574 1-445): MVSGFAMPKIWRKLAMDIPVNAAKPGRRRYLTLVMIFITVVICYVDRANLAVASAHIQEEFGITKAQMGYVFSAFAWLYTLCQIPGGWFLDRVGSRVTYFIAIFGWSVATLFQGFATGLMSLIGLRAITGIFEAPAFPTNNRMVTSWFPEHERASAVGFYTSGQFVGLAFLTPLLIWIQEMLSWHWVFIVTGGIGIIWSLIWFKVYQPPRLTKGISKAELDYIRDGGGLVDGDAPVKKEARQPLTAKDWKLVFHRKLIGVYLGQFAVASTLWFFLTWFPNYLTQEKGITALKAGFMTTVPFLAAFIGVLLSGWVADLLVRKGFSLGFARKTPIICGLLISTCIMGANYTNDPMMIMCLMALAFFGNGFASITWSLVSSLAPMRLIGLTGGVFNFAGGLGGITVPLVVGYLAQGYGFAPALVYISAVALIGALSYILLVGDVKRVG
Source text: (§1) SSM electrophysiology, kobs of pre-steady state current vs concentration on DgoT

DgoT [2] = molecular target: T2, DgoT (Escherichia coli, UniProt A0A0H2Z574, D46N)
T2 sequence (A0A0H2Z574 1-445 D46N): T1 sequence (A0A0H2Z574 1-445)
Source text: as §1

DgoT [3] = molecular target: T3, DgoT (Escherichia coli, UniProt A0A0H2Z574, E133Q)
T3 sequence (A0A0H2Z574 1-445 E133Q): T1 sequence (A0A0H2Z574 1-445)
Source text: as §1

DgoT [4] = molecular target: T4, DgoT (Escherichia coli, UniProt A0A0H2Z574, R126Q)
T4 sequence (A0A0H2Z574 1-445 R126Q): T1 sequence (A0A0H2Z574 1-445)
Source text: as §1

For `O=C(O)[C@H](O)[C@@H](O)[C@@H](O)[C@H](O)CO` [D-galactonate], the Kd (DgoT [1]) was 15.1 mM, the Kd (DgoT [2]) was 10.9 mM and the Kd (DgoT [3]) was 15.3 mM. It also gave a Kd (DgoT [4]) of 22 mM.
